From ChEMBL document CHEMBL1201862, “PubChem BioAssay data set” (2004) come the findings set out here.

SMILES strings stand for the structures. The source made the active and inactive calls.

Test [1] concerns the target Polyadenylate-binding protein 1 (Homo sapiens, UniProt P11940). The experiment in a line: PABP1 MLLE–PAM2 interaction inhibitors, dose response, miRNA deadenylation inhibitor project, biochemical, fluorescence polarization, Cy5-PAM2 peptide, secondary (AID 602260). The conditions noted are these: read-out: IC50_Mean. The format is functional.
A further test addresses T1, Orexin receptor type 2 (Homo sapiens, UniProt O43614).
T1 sequence (O43614 whole entry): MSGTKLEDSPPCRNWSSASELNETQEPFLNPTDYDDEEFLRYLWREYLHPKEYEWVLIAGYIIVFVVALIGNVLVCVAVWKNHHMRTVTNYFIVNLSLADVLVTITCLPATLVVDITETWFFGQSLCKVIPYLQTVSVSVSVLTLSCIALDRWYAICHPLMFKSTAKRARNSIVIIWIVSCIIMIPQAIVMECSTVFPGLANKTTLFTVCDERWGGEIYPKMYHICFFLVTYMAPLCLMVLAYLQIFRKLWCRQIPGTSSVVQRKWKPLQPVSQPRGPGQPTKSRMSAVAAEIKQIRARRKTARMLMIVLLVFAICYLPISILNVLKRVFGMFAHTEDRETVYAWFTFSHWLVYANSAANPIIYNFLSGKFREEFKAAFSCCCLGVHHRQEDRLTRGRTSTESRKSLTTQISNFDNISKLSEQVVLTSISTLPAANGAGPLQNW
Nature of the test: Counterscreen assay for antagonists of the orexin 1 receptor (OX1R; HCRTR1): Fluorescence-based cell-based dose response assay for antagonists of the orexin 2 receptor (OX2R; HCRTR2), run by assay provider. The format is functional.

In test [2] the target is T2, Sentrin-specific protease 8 (Homo sapiens, UniProt Q96LD8).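 Further: luminescence read-out of SENP8 inhibition, dose-response confirmation following an ultra-high-throughput screen.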
T2 sequence (Q96LD8 whole entry): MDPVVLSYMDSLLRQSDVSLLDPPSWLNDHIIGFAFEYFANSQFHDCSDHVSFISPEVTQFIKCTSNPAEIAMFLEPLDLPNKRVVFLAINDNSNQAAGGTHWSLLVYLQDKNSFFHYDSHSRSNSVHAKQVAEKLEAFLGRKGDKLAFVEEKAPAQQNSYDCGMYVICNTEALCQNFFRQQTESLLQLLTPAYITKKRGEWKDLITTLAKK
The format is functional.

In test [3] the target is Glucose-6-phosphate 1-dehydrogenase (Homo sapiens, UniProt P11413). Nature of the test: human G6PD enzyme inhibitors, dose response, selectivity assay for P. falciparum G6PD inhibitor project, biochemical, fluorescence (AID 504792). The format is functional.
The next test concerns the target Beta Lactamase (Pseudomonas aeruginosa, UniProt Q932Y6). Nature of the test: beta-lactamase reporter inhibitor potency, dose response, artefact control for TLR9-MyD88 binding inhibitor project, BLA reporter cells, FRET fluorescence (AID 588341).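 Further: cell based assay in CHO-K1 cells stably expressing beta-lactamase.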 The format is cell-based.
The subject of the next test is Escherichia coli. Nature of the test: microbe, parasite or virus in culture.
In test [4] the target is Bifunctional protein GlmU (Mycobacterium tuberculosis, UniProt P9WMN3). Nature of the test: Inhibitors of Mycobacterial Glucosamine-1-phosphate acetyl transferase (GlmU). Secondary screen. More on the design: species or system Mycobacterium tuberculosis H37Rv.
For a further test, the system named is BJ. The experiment in a line: cytotoxicity toward BJ-TERT-LT-ST fibroblasts, dose response, cell-based, RAS-independent, luminescence (AID 1935).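 Further: BJ fibroblasts immortalized with TERT plus LT and ST oncogenes.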 The format is functional. The conditions noted are these: Homo sapiens.
A further test deals with Vero. Nature of the test: cells. The conditions noted are these: Chlorocebus sabaeus. The format is functional, cell-based.
Test [5] has as its target T3, Serine/threonine-protein phosphatase (Candida dubliniensis (strain CD36 / CBS 7987 / NCPF 3949 / NRRLY-17841) (Yeast), UniProt B9W6M3).
T3 sequence (B9W6M3 whole entry): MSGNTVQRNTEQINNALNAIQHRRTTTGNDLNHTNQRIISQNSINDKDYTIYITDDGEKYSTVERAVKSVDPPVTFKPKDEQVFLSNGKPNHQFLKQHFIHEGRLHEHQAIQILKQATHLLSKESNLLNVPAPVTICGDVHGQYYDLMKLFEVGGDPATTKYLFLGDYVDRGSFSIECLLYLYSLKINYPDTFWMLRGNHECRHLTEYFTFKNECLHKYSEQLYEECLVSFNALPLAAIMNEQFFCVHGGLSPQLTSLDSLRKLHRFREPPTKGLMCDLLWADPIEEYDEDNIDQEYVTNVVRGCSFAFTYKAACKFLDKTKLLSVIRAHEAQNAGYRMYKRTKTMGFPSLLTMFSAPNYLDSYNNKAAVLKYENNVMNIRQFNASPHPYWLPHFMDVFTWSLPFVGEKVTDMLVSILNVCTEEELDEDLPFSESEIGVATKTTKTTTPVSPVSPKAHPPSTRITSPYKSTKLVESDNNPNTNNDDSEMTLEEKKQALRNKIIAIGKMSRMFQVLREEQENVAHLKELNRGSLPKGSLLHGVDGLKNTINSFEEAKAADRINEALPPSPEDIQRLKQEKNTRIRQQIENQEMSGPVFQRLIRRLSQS
Nature of the test: calcineurin pathway inhibitors in yeast reporter, dose response, S. cerevisiae, CDRE-lacZ, luminescence, secondary (AID 2388).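 Further: yeast reporter cells carrying a calcineurin-responsive lacZ construct stimulated with calcium chloride; luminescent beta-galactosidase reporter signal in whole cells rather than isolated phosphatase activity; potency for inhibition where a drop in reporter signal means calcineurin blockade.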 The format is functional, cell-based.

Test [6] in a line: control 3'UTR Renilla luciferase suppression, dose response, counter-screen for Shn3 inhibitor project, cell-based, Clone20-Shn3RL, cherry-picked (AID 624133). The format is functional.
A further test addresses T4, Streptokinase A (Streptococcus pyogenes serotype M1, UniProt P10520).
T4 sequence (P10520 whole entry): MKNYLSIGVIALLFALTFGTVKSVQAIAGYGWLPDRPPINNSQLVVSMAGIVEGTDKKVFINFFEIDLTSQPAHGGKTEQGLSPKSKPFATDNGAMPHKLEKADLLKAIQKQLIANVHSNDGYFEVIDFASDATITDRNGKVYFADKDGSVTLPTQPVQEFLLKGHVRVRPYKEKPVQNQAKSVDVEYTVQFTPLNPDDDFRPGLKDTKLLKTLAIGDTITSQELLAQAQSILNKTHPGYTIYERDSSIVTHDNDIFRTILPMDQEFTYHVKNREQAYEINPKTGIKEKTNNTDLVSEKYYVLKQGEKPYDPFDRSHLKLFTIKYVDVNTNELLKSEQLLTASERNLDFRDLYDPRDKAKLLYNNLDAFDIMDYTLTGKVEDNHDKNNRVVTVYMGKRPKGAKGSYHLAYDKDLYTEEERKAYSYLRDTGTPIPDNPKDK
Nature of the test: S. pyogenes streptokinase expression inhibitors, potency, dose response, plasminogen activation absorbance, OD405 (AID 1914).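 Further: secreted streptokinase activity via plasminogen activation per viability signal from cell pellet.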 The format is functional, Streptococcus pyogenes M1 GAS.

The target in the next test is Large T antigen (Simian virus 40, UniProt P03070). Nature of the test: A confirmatory biochemical assay using the ADP-Hunter methodology, purified TAg, and ATP to quantify activity of synthesized compounds that inhibit the ATPase activity of Tag (3). [Related pubchem assays (depositor defined):AID1903, AID1909, AID2102, AID2501, AID2615, AID2775, AID435001, AID449729]. More on the design: species or system Betapolyomavirus macacae.
Sequence of Large T antigen (P03070 whole entry): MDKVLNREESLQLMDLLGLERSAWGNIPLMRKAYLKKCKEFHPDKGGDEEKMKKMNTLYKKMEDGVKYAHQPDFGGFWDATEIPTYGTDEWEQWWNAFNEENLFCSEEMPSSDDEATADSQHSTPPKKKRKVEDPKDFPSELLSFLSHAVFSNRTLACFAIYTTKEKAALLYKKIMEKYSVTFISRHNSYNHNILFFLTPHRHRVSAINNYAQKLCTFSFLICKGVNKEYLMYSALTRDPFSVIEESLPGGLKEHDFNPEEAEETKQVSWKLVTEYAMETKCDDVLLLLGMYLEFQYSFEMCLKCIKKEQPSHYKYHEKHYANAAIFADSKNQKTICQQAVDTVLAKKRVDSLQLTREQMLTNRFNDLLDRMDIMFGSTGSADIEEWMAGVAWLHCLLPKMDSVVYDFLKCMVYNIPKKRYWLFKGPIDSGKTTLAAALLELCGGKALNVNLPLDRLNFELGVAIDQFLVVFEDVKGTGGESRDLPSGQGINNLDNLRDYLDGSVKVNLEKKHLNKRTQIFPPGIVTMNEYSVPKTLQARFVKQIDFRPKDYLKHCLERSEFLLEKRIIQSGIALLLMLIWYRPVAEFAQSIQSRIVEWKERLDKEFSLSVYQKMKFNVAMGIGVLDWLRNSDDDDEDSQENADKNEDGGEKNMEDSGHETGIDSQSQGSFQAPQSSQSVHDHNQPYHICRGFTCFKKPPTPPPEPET

Sequence of Bifunctional protein GlmU (P9WMN3 whole entry): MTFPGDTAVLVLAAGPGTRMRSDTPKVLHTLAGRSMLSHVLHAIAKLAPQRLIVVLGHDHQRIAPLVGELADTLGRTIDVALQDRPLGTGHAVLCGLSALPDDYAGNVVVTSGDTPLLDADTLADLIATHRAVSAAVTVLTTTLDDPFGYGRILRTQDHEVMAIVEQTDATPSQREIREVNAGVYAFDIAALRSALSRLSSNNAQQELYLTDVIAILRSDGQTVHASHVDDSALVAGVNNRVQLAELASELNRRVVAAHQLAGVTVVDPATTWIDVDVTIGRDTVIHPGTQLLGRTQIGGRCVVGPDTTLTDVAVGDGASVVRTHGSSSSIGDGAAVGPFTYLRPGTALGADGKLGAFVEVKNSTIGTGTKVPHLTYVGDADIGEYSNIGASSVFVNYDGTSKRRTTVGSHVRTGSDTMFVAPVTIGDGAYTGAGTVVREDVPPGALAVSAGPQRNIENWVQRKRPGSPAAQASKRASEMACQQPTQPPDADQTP
Sequence of Polyadenylate-binding protein 1 (P11940 whole entry): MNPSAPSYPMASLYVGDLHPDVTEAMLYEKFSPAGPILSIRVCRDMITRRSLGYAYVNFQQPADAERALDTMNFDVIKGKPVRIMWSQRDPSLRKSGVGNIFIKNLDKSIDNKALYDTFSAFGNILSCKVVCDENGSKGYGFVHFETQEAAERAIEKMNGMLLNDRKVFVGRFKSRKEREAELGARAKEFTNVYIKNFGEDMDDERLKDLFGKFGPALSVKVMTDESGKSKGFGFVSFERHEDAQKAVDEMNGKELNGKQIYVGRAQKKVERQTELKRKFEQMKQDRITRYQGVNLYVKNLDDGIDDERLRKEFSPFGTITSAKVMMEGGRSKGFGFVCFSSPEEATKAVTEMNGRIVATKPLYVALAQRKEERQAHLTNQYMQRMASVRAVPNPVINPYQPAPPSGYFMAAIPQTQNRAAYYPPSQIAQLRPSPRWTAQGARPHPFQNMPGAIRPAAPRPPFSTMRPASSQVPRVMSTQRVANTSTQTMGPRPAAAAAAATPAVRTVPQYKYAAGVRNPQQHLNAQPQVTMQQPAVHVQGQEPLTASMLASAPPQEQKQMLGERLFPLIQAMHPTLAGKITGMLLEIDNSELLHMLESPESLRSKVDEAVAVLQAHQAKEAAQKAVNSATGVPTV
Sequence of Beta Lactamase (Q932Y6 whole entry): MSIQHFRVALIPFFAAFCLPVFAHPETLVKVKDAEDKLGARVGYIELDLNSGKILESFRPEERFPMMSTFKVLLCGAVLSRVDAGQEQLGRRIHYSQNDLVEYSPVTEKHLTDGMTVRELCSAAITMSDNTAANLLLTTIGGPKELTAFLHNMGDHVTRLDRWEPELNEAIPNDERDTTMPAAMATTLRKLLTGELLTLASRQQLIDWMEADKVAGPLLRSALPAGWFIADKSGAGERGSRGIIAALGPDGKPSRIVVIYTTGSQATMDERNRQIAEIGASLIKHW
Sequence of Glucose-6-phosphate 1-dehydrogenase (P11413 whole entry): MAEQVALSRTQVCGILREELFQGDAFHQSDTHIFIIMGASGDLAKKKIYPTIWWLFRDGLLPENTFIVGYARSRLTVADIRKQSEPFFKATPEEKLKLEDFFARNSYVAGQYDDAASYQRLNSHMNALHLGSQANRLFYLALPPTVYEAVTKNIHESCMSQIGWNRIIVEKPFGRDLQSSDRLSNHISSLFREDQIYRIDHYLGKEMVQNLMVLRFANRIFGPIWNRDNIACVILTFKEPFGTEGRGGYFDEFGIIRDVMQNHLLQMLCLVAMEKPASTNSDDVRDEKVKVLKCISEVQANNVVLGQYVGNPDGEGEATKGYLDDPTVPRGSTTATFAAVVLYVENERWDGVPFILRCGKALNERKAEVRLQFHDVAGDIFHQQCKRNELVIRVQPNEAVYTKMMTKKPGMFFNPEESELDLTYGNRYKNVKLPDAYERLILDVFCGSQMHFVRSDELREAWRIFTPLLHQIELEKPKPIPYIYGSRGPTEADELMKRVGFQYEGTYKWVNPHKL

Turning to `Oc1ccc(NC(=S)N=Nc2c(O)[nH]c3ccccc23)cc1`, the IC50 in test [1] is > 66 µM (inactive); on Orexin receptor type 2 it was > 88.8 µM (inactive).
Turning to `N#Cc1c(N2CCCCC2)nc(N)c2c(N)nc(SCC(=O)O)cc12`, the IC50 in test [2] is 10.6 µM (active).
Take `CCc1ccc(S(=O)(=O)Nc2cc(SCC(=O)O)c(O)c3ccccc23)cc1`: the IC50 in [3] is 50 µM (inactive).
Take `O=[N+]([O-])c1ccc(Sc2cccc[n+]2[O-])c2nonc12`: the IC50 at Beta Lactamase is 7.63 µM (active); in [4] it was 72.6 µM (active). Moreover, the AC50 with Escherichia coli was 5.53 µM (active).
On to `CCCC(=O)NC(c1ccc(C(C)C)cc1)c1ccc2cccnc2c1O` (stereo not drawn), for which the EC50 was 2.1 µM (inconclusive) in the test on BJ and > 180 µM (inactive) in [5]. In addition, the IC50 with Vero is > 25 µM (active). In test [6], the half-maximal activity concentration (AC50) was 0.938 µM (active).
As to `Oc1c(Cl)cc(Cl)c(Cl)c1Cc1c(O)c(Cl)cc(Cl)c1Cl` [HEXACHLOROPHENE], the concentration giving a half-maximal response (EC50) at Streptokinase A is > 150 µM (not active). In addition, on Large T antigen, the IC50 was 34.5 µM (active).
